Assay results taken from patent US6136808A, “Taxane derivatives” (Kabushiki Kaisha Yakult Honsha, priority 1997, dated 2000).
Converted amounts (≈) assume the structure as drawn. Read-outs that look alike come from different tables or passages of the source.

What was measured:
[1] = test system: KB cells; assay: Cancer cell proliferation activities, growth inhibition of KB cells (XTT assay); format: cell-based; conditions: Homo sapiens, 72 h
Description: Cancer Cell Proliferation Activities
As KB cells derived from a human mouth cancer, those purchased from Dainippon Pharmaceutical Co., Ltd. and stored in a lyophilized from at the Research Institute of that company was used. In Dulbecco's modified Eargle's medium containing 10% fetal bovine serum (product of NISSUI PHARMACEUTICAL CO., LTD.), the KB cells were cultured and maintained under the conditions of 5%, CO2 -air and 37° C.
Each compound was used by dissolving it at a concentration of 10 mg/ml in DMSO.
On Day-1, cells which were in a logarithmic growth phase were inoculated at 2,000 cells/100 μl/well on 96-well microtiter plates (Falcon #3072) by using a phenol-red-free culture medium with 10% fetal bovine serum contained therein (Dulbecco's modified Eargle's medium (Sigma)), and were cultured overnight. On Day 0, the compounds each of which had been diluted to 0.03 to 10,000 ng/ml with the same culture medium were added in 100 μl aliquots to the individual wells, and the cells were cultured for 3 days. Three wells were used per each drug concentration. Each plate was provided with three blank wells containing only the culture medium and also with eight wells as a drug-untreated control.
Upon use, XTT (Sigma) was dissolved at a concentration of 1 mg/ml in each culture medium which was free of serum. Phenodin methosulfate (Sigma) dissolved at a concentration of 5 mM in PBS was added to the resulting solution at a volume ratio of 1/200. To each well, the solution so prepared was added in an amount of 50 μl per well. Subsequent to culture for 4 hours, OD was measured at 450 nm by ELISA.
Calculation of 50% Growth Inhibitory Concentration (GI50)
GI50 was calculated by interpolation from a concentration-growth inhibition rate (GIR). GIR was determined in accordance with the following formula: [formula]

[2] = background statement on Taxol; cited from earlier work
[3] = test system: ovarian cancer and breast cancer; conditions: Ann. int. Med. 111, 273, 1989; cited from earlier work
[4] = Solubility test in water of taxane derivatives (HPLC); conditions: for solubility: water; for Dissolved amount (Y): purified water + 0.1N hydrochloric acid (1.05 eq.), room temperature, 2 hours, HPLC; for solubility at 2 h: water + 0.1n hcl
Description: I) Measurement of the solubility of the compound (b)
1) Preparation of a calibration curve
(§1) The compound (b) was weighed in an amount of 1.19 mg, to which 1.19 ml of acetonitrile was added so that the compound was dissolved to provide a standard solution. Using a 10 μl portion of the standard solution, the test was conducted by HPLC (operation conditions 1). […] The peak area obtained as an average of three measurements was plotted against the amount (10.0 μg) of the compound (b) per 10 μl, whereby a calibration curve was prepared.
Calibration curve: Y=2.08×10^-5 X [X: peak area, Y: amount (μg) of the compound (b)]
[HPLC operation conditions 1]
Column: Inertsil ODS-2 (5-250), 40 deg.
Mobile phase: 0.01M KH2 PO4 --CH3 CN (3:2)
Detection: Ultraviolet absorption photometer (225 nm), 0.2 aufs.
2) Solubility test of the compound (b)
(§2) The compound (b) was weighed in an amount of 4.0 mg and then suspended in 2.0 ml of purified water. To the resulting suspension, 45 μl (1.05 eq.) of 0.1N hydrochloric acid was added. By ultrasonication, the resulting mixture was formed into a uniform suspension, which was then shaken at room temperature for 2 hours. The thus-obtained mixture was filtered through a membrane filter (0.22 μm), and the filtrate was provided as a test solution. Using the resulting test solution, the test was conducted by HPLC (operation conditions 1). From the area obtained as an average of three measurements, the solubility of the compound (b) was determined.
II) Measurement of the solubility of the compound (j)
as §1, with “(j)” for “(b)”, “0.94” for “1.19”, “The” for “The peak”
Calibration curve: Y=2.02×10^-5 X [X: peak area, Y: amount (μg) of the compound (j)]
2) Solubility test of the compound (j)
as §2, with “(j)” for “(b)”, “4.24” for “4.0”, “46” for “45”

| SMILES | GI50 ([1]; KB) | solubility in water (in words) [2] | efficacy against ovarian cancer and breast cancer [3] | solubility [4] | Dissolved amount (Y) [4] | solubility at 2 h [4] | GI50 ([1]; KB cells, 3 days, XTT, read-out: GI50) |
| --- | --- | --- | --- | --- | --- | --- | --- |
| CC(=O)O[C@H]1C(=O)[C@@]2(C)[C@H]([C@H](OC(=O)c3ccccc3)[C@]3(O)C[C@H](OC(=O)[C@H](O)[C@@H](NC(=O)c4ccccc4)c4ccccc4)C(C)=C1C3(C)C)[C@]1(OC(C)=O)CO[C@@H]1C[C@@H]2O [Taxol, reference compound] | 1.3 ng/mL (≈ 0.00152 µM) | sparingly soluble in water | high efficacy against ovarian cancer and breast cancer | 0.0004 mg/mL (≈ 0.468 µM) |  |  |  |
| CCN1CCN(C(=O)OC2C(=O)C3(C)C(O)CC4OCC4(OC(C)=O)C3C(OC(=O)c3ccccc3)C3(O)CC(OC(=O)C(O)C(NC(=O)OC4CCCC4)c4ccccc4)C(C)=C2C3(C)C)CC1 (stereo not drawn) [Compound j, 13-O-(3-Cyclopentyloxycarbonylamino-2-hydroxy-3-phenylpropionyl)-10-O-(4-ethylpiperazinocarbonyl)-10-deacetylbaccatin III] | 0.58 ng/mL (≈ 0.000604 µM) |  |  | 1.84 mg/mL (≈ 1920 µM) | 9.20 μg/5 μl | 1.84 mg/mL |  |
| CC(=O)OC12COC1CC(O)C1(C)C(=O)C(OC(=O)N3CCN(C)CC3)C3=C(C)C(OC(=O)C(O)C(NC(=O)c4ccco4)c4ccccc4)CC(O)(C(OC(=O)c4ccccc4)C21)C3(C)C (stereo not drawn) [Compound b, 13-O-[3-(2-Furoylamino)-2-hydroxy-3-phenylpropionyl]-10-O-(4-methylpiperazinocarbonyl)-10-deacetylbaccatin III] |  |  |  | 2 mg/mL (≈ 2160 µM) | 9.98 μg/5 μl | 2 mg/mL | 1.4 ng/mL (≈ 0.00151 µM) |
